# Results taken from ChEMBL document CHEMBL1151757, “Synthesis, radiosynthesis, and biological evaluation of fluorine-18-labeled 2beta-carbo(fluoroalkoxy)-3beta-(3'-((Z)-2-haloethenyl)phenyl)nortropanes: candidate radioligands for in vivo imaging of the serotonin transporter with positron emission tomography” (J Med Chem, 2008).
# Tested on: Putamen
# Assay: Drug uptake in anesthetized cynomolgus monkey brain putamen after 15.5 mins postinjection
# Type: ADME, organism-based, Macaca fascicularis
# Design: unit not given here
# Conditions: in vivo
row,Structure (SMILES),Drug uptake
1,O=C(OCC[18F])C1C2CCC(CC1c1cccc(/C=C\Br)c1)N2 (centres undefined),4.05

# Tested on: Pons
# Assay: Drug uptake in anesthetized cynomolgus monkey brain pons after 65 mins postinjection
# Type: ADME, organism-based, Macaca fascicularis
# Conditions: in vivo
row,Structure (SMILES),Drug uptake
1,O=C(OCC[18F])C1C2CCC(CC1c1cccc(/C=C\Br)c1)N2 (centres undefined),4.56

# Tested on: not listed separately
# Assay: Ratio of drug uptake in pons to cerebellum in anesthetized cynomolgus monkey after 6.5 mins postinjection
# Type: ADME, organism-based, Macaca fascicularis
# Conditions: in vivo
row,Structure (SMILES),Ratio
1,O=C(OCC[18F])C1C2CCC(CC1c1cccc(/C=C\Br)c1)N2 (centres undefined),1

# Tested on: Thalamus
# Assay: Drug uptake in anesthetized cynomolgus monkey brain thalamus after 15.5 mins postinjection
# Type: ADME, organism-based, Macaca fascicularis
# Design: unit not given here
# Conditions: in vivo
row,Structure (SMILES),Drug uptake
1,O=C(OCC[18F])C1C2CCC(CC1c1cccc(/C=C\Br)c1)N2 (centres undefined),3.29

# Tested on: Caudate
# Assay: Drug uptake in anesthetized cynomolgus monkey brain caudate after 145 mins postinjection
# Type: ADME, organism-based, Macaca fascicularis, Caudate nucleus
# Conditions: in vivo
row,Structure (SMILES),Drug uptake
1,O=C(OCC[18F])C1C2CCC(CC1c1cccc(/C=C\Br)c1)N2 (centres undefined),3.52

# Tested on: not listed separately
# Assay: Ratio of drug uptake in midbrain to cerebellum in anesthetized cynomolgus monkey after 18.5 mins postinjection
# Type: ADME, organism-based, Macaca fascicularis
# Conditions: in vivo
row,Structure (SMILES),Ratio
1,O=C(OCC[18F])C1C2CCC(CC1c1cccc(/C=C\Br)c1)N2 (centres undefined),1.2

# Tested on: Midbrain
# Assay: Drug uptake in anesthetized cynomolgus monkey brain midbrain after 205 mins postinjection
# Type: ADME, organism-based, Macaca fascicularis
# Conditions: in vivo
row,Structure (SMILES),Drug uptake
1,O=C(OCC[18F])C1C2CCC(CC1c1cccc(/C=C\Br)c1)N2 (centres undefined),4

# Tested on: Thalamus
# Assay: Drug uptake in anesthetized cynomolgus monkey brain thalamus after 115 mins postinjection
# Type: ADME, organism-based, Macaca fascicularis
# Design: unit not given here
# Conditions: in vivo
row,Structure (SMILES),Drug uptake
1,O=C(OCC[18F])C1C2CCC(CC1c1cccc(/C=C\Br)c1)N2 (centres undefined),4.22

# Tested on: Pons
# Assay: Drug uptake in anesthetized cynomolgus monkey brain pons after 215 mins postinjection
# Type: ADME, organism-based, Macaca fascicularis
# Conditions: in vivo
row,Structure (SMILES),Drug uptake
1,O=C(OCC[18F])C1C2CCC(CC1c1cccc(/C=C\Br)c1)N2 (centres undefined),3.22

# Tested on: not listed separately
# Assay: Ratio of drug uptake in caudate to cerebellum in anesthetized cynomolgus monkey after 0.5 mins postinjection
# Type: ADME, organism-based, Macaca fascicularis
# Conditions: in vivo
row,Structure (SMILES),Ratio
1,O=C(OCC[18F])C1C2CCC(CC1c1cccc(/C=C\Br)c1)N2 (centres undefined),0.9

# Tested on: Medulla
# Assay: Drug uptake in anesthetized cynomolgus monkey brain medulla after 27.5 mins postinjection
# Type: ADME, organism-based, Macaca fascicularis
# Conditions: in vivo
row,Structure (SMILES),Drug uptake
1,O=C(OCC[18F])C1C2CCC(CC1c1cccc(/C=C\Br)c1)N2 (centres undefined),4.57

# Tested on: not listed separately
# Assay: Drug uptake in anesthetized cynomolgus monkey brain cerebellum after 45 mins postinjection
# Type: ADME, organism-based, Macaca fascicularis
# Conditions: in vivo, 0.75 h
row,Structure (SMILES),Drug uptake
1,O=C(OCC[18F])C1C2CCC(CC1c1cccc(/C=C\Br)c1)N2 (centres undefined),3.76

# Tested on: not listed separately
# Assay: Ratio of drug uptake in occipital lobe to cerebellum in anesthetized cynomolgus monkey after 4.5 mins postinjection
# Type: ADME, organism-based, Macaca fascicularis
# Conditions: in vivo, 0.075 h
row,Structure (SMILES),Ratio
1,O=C(OCC[18F])C1C2CCC(CC1c1cccc(/C=C\Br)c1)N2 (centres undefined),0.7

# Tested on: not listed separately
# Assay: Drug uptake in anesthetized cynomolgus monkey brain cerebellum after 135 mins postinjection
# Type: ADME, organism-based, Macaca fascicularis
# Conditions: in vivo, 2.25 h
row,Structure (SMILES),Drug uptake
1,O=C(OCC[18F])C1C2CCC(CC1c1cccc(/C=C\Br)c1)N2 (centres undefined),2.43

# Tested on: not listed separately
# Assay: Ratio of drug uptake in thalamus to cerebellum in anesthetized cynomolgus monkey after 155 mins postinjection
# Type: ADME, organism-based, Macaca fascicularis
# Conditions: in vivo
row,Structure (SMILES),Ratio
1,O=C(OCC[18F])C1C2CCC(CC1c1cccc(/C=C\Br)c1)N2 (centres undefined),1.7

# Tested on: Midbrain
# Assay: Drug uptake in anesthetized cynomolgus monkey brain midbrain after 2.5 mins postinjection
# Type: ADME, organism-based, Macaca fascicularis
# Design: unit not given here
# Conditions: in vivo
row,Structure (SMILES),Drug uptake
1,O=C(OCC[18F])C1C2CCC(CC1c1cccc(/C=C\Br)c1)N2 (centres undefined),0.55

# Tested on: not listed separately
# Assay: Drug uptake in anesthetized cynomolgus monkey brain frontal lobe after 195 mins postinjection
# Type: ADME, organism-based, Macaca fascicularis
# Conditions: in vivo, 3.25 h
row,Structure (SMILES),Drug uptake
1,O=C(OCC[18F])C1C2CCC(CC1c1cccc(/C=C\Br)c1)N2 (centres undefined),2.18

# Tested on: not listed separately
# Assay: Ratio of drug uptake in pons to cerebellum in anesthetized cynomolgus monkey after 18.5 mins postinjection
# Type: ADME, organism-based, Macaca fascicularis
# Conditions: in vivo
row,Structure (SMILES),Ratio
1,O=C(OCC[18F])C1C2CCC(CC1c1cccc(/C=C\Br)c1)N2 (centres undefined),1.1

# Tested on: not listed separately
# Assay: Ratio of drug uptake in putamen to cerebellum in anesthetized cynomolgus monkey after 45 mins postinjection
# Type: ADME, organism-based, Macaca fascicularis
# Conditions: in vivo, 0.75 h
row,Structure (SMILES),Ratio
1,O=C(OCC[18F])C1C2CCC(CC1c1cccc(/C=C\Br)c1)N2 (centres undefined),1.3

# Tested on: Thalamus
# Assay: Drug uptake in anesthetized cynomolgus monkey brain thalamus after 125 mins postinjection
# Type: ADME, organism-based, Macaca fascicularis
# Design: unit not given here
# Conditions: in vivo
row,Structure (SMILES),Drug uptake
1,O=C(OCC[18F])C1C2CCC(CC1c1cccc(/C=C\Br)c1)N2 (centres undefined),4.15

# Tested on: not listed separately
# Assay: Ratio of drug uptake in frontal lobe to cerebellum in anesthetized cynomolgus monkey after 205 mins postinjection
# Type: ADME, organism-based, Macaca fascicularis
# Conditions: in vivo
row,Structure (SMILES),Ratio
1,O=C(OCC[18F])C1C2CCC(CC1c1cccc(/C=C\Br)c1)N2 (centres undefined),1.1

# Tested on: not listed separately
# Assay: Ratio of drug uptake in thalamus to cerebellum in anesthetized cynomolgus monkey after 115 mins postinjection
# Type: ADME, organism-based, Macaca fascicularis
# Conditions: in vivo
row,Structure (SMILES),Ratio
1,O=C(OCC[18F])C1C2CCC(CC1c1cccc(/C=C\Br)c1)N2 (centres undefined),1.5

# Tested on: not listed separately
# Assay: Drug uptake in anesthetized cynomolgus monkey brain cerebellum after 155 mins postinjection
# Type: ADME, organism-based, Macaca fascicularis
# Conditions: in vivo
row,Structure (SMILES),Drug uptake
1,O=C(OCC[18F])C1C2CCC(CC1c1cccc(/C=C\Br)c1)N2 (centres undefined),2.19

# Tested on: not listed separately
# Assay: Ratio of drug uptake in medulla to cerebellum in anesthetized cynomolgus monkey after 18.5 mins postinjection
# Type: ADME, organism-based, Macaca fascicularis
# Conditions: in vivo
row,Structure (SMILES),Ratio
1,O=C(OCC[18F])C1C2CCC(CC1c1cccc(/C=C\Br)c1)N2 (centres undefined),1.2

# Tested on: not listed separately
# Assay: Drug uptake in anesthetized cynomolgus monkey brain frontal lobe after 0.5 mins postinjection
# Type: ADME, organism-based, Macaca fascicularis
# Conditions: in vivo
row,Structure (SMILES),Drug uptake
1,O=C(OCC[18F])C1C2CCC(CC1c1cccc(/C=C\Br)c1)N2 (centres undefined),0

# Tested on: Pons
# Assay: Drug uptake in anesthetized cynomolgus monkey brain pons after 225 mins postinjection
# Type: ADME, organism-based, Macaca fascicularis
# Conditions: in vivo, 3.75 h
row,Structure (SMILES),Drug uptake
1,O=C(OCC[18F])C1C2CCC(CC1c1cccc(/C=C\Br)c1)N2 (centres undefined),2.77

# Tested on: Putamen
# Assay: Drug uptake in anesthetized cynomolgus monkey brain putamen after 0.5 mins postinjection
# Type: ADME, organism-based, Macaca fascicularis
# Conditions: in vivo
row,Structure (SMILES),Drug uptake
1,O=C(OCC[18F])C1C2CCC(CC1c1cccc(/C=C\Br)c1)N2 (centres undefined),0.01

# Tested on: Putamen
# Assay: Drug uptake in anesthetized cynomolgus monkey brain putamen after 155 mins postinjection
# Type: ADME, organism-based, Macaca fascicularis
# Conditions: in vivo
row,Structure (SMILES),Drug uptake
1,O=C(OCC[18F])C1C2CCC(CC1c1cccc(/C=C\Br)c1)N2 (centres undefined),4.01

# Tested on: not listed separately
# Assay: Drug uptake in anesthetized cynomolgus monkey brain occipital lobe after 1.5 mins postinjection
# Type: ADME, organism-based, Macaca fascicularis
# Conditions: in vivo, 0.025 h
row,Structure (SMILES),Drug uptake
1,O=C(OCC[18F])C1C2CCC(CC1c1cccc(/C=C\Br)c1)N2 (centres undefined),0.06

# Tested on: Thalamus
# Assay: Drug uptake in anesthetized cynomolgus monkey brain thalamus after 27.5 mins postinjection
# Type: ADME, organism-based, Macaca fascicularis
# Design: unit not given here
# Conditions: in vivo
row,Structure (SMILES),Drug uptake
1,O=C(OCC[18F])C1C2CCC(CC1c1cccc(/C=C\Br)c1)N2 (centres undefined),3.94

# Tested on: not listed separately
# Assay: Ratio of drug uptake in frontal lobe to cerebellum in anesthetized cynomolgus monkey after 95 mins postinjection
# Type: ADME, organism-based, Macaca fascicularis
# Conditions: in vivo
row,Structure (SMILES),Ratio
1,O=C(OCC[18F])C1C2CCC(CC1c1cccc(/C=C\Br)c1)N2 (centres undefined),0.9

# Tested on: Medulla
# Assay: Drug uptake in anesthetized cynomolgus monkey brain medulla after 22.5 mins postinjection
# Type: ADME, organism-based, Macaca fascicularis
# Conditions: in vivo, 0.375 h
row,Structure (SMILES),Drug uptake
1,O=C(OCC[18F])C1C2CCC(CC1c1cccc(/C=C\Br)c1)N2 (centres undefined),4.7

# Tested on: not listed separately
# Assay: Drug uptake in anesthetized cynomolgus monkey brain frontal lobe after 6.5 mins postinjection
# Type: ADME, organism-based, Macaca fascicularis
# Conditions: in vivo
row,Structure (SMILES),Drug uptake
1,O=C(OCC[18F])C1C2CCC(CC1c1cccc(/C=C\Br)c1)N2 (centres undefined),1.75

# Tested on: Caudate
# Assay: Drug uptake in anesthetized cynomolgus monkey brain caudate after 155 mins postinjection
# Type: ADME, organism-based, Macaca fascicularis, Caudate nucleus
# Conditions: in vivo
row,Structure (SMILES),Drug uptake
1,O=C(OCC[18F])C1C2CCC(CC1c1cccc(/C=C\Br)c1)N2 (centres undefined),3.47
